Laboratory results from US20110039721A1, “METHOD FOR PREDICTION ABOUT CARCINOGENICITY OF SUBSTANCE IN RODENT” (Chemicals Evaluation and Research Institute, priority 2007, published 2011).
Like-named read-outs stand apart in the source and are kept apart here.

Key:
rodent = conditions: classification of the substance (C+/C−); cited from earlier work
[1] = classification of the substance (M+/M−); cited from earlier work
liver = conditions: cited from earlier work
[2] = tested on: mRNA expressed from the genes (A) to (D) in rat liver; assay: Behavior of genes (mRNA expression level, oligo-DNA microarray) in rat liver after 28-day oral administration; type: in vivo; conditions: for Behavior of gene caused by administration of chemical substance, Gene No. 4846 / Behavior of gene caused by administration of chemical substance, Gene No. 2026 / Behavior of gene caused by administration of chemical substance, Gene No. 4218 / Behavior of gene caused by administration of chemical substance, Gene No. 6182 / Behavior of gene caused by administration of chemical substance, Gene No. 5600: gene group (A); for Behavior of gene caused by administration of chemical substance, Gene No. 4846: Unigene No. Rn.144554; for Behavior of gene caused by administration of chemical substance, Gene No. 2026 / Behavior of gene caused by administration of chemical substance, Gene No. 4218: Unigene No. Rn.167075; for Behavior of gene caused by administration of chemical substance, Gene No. 6182: Unigene No. Rn.5834; for Behavior of gene caused by administration of chemical substance, Gene No. 5600: Unigene No. Rn.9836; for Behavior of gene caused by administration of chemical substance, Gene No. 1494 / Behavior of gene caused by administration of chemical substance, Gene No. 2045 / Behavior of gene caused by administration of chemical substance, Gene No. 2203: gene group (B); for Behavior of gene caused by administration of chemical substance, Gene No. 1494: Unigene No. Rn.1430; for Behavior of gene caused by administration of chemical substance, Gene No. 2045: Unigene No. Rn.19329; for Behavior of gene caused by administration of chemical substance, Gene No. 2203: Unigene No. Rn.21240; for Behavior of gene caused by administration of chemical substance, Gene No. 533 / Behavior of gene caused by administration of chemical substance, Gene No. 725 / Behavior of gene caused by administration of chemical substance, Gene No. 1163 / Behavior of gene caused by administration of chemical substance, Gene No. 4973 / Behavior of gene caused by administration of chemical substance, Gene No. 4095 / Behavior of gene caused by administration of chemical substance, Gene No. 1334 / Behavior of gene caused by administration of chemical substance, Gene No. 6620 / Behavior of gene caused by administration of chemical substance, Gene No. 6303 / Behavior of gene caused by administration of chemical substance, Gene No. 5878 / Behavior of gene caused by administration of chemical substance, Gene No. 1131 / Behavior of gene caused by administration of chemical substance, Gene No. 1562 / Behavior of gene caused by administration of chemical substance, Gene No. 1741 / Behavior of gene caused by administration of chemical substance, Gene No. 893 / Behavior of gene caused by administration of chemical substance, Gene No. 6026 / Behavior of gene caused by administration of chemical substance, Gene No. 154 / Behavior of gene caused by administration of chemical substance, Gene No. 1993 / Behavior of gene caused by administration of chemical substance, Gene No. 813 / Behavior of gene caused by administration of chemical substance, Gene No. 2494 / Behavior of gene caused by administration of chemical substance, Gene No. 2546 / Behavior of gene caused by administration of chemical substance, Gene No. 3776 / Behavior of gene caused by administration of chemical substance, Gene No. 3929 / Behavior of gene caused by administration of chemical substance, Gene No. 1119 / Behavior of gene caused by administration of chemical substance, Gene No. 6742 / Behavior of gene caused by administration of chemical substance, Gene No. 5634: gene group (C); for Behavior of gene caused by administration of chemical substance, Gene No. 533: Unigene No. Rn.106184; for Behavior of gene caused by administration of chemical substance, Gene No. 725: Unigene No. Rn.108075; for Behavior of gene caused by administration of chemical substance, Gene No. 1163: Unigene No. Rn.11766; for Behavior of gene caused by administration of chemical substance, Gene No. 4973: Unigene No. Rn.118529; for Behavior of gene caused by administration of chemical substance, Gene No. 4095: Unigene No. Rn.119024; for Behavior of gene caused by administration of chemical substance, Gene No. 1334 / Behavior of gene caused by administration of chemical substance, Gene No. 6620: Unigene No. Rn.120914; for Behavior of gene caused by administration of chemical substance, Gene No. 6303: Unigene No. Rn.123063; for Behavior of gene caused by administration of chemical substance, Gene No. 5878: Unigene No. Rn.143213; for Behavior of gene caused by administration of chemical substance, Gene No. 1131: Unigene No. Rn.144946; for Behavior of gene caused by administration of chemical substance, Gene No. 1562: Unigene No. Rn.14744; for Behavior of gene caused by administration of chemical substance, Gene No. 1741: Unigene No. Rn.1647; for Behavior of gene caused by administration of chemical substance, Gene No. 893: Unigene No. Rn.164817; for Behavior of gene caused by administration of chemical substance, Gene No. 6026: Unigene No. Rn.167685; for Behavior of gene caused by administration of chemical substance, Gene No. 154: Unigene No. Rn.185941; for Behavior of gene caused by administration of chemical substance, Gene No. 1993: Unigene No. Rn.18728; for Behavior of gene caused by administration of chemical substance, Gene No. 813: Unigene No. Rn.201760; for Behavior of gene caused by administration of chemical substance, Gene No. 2494: Unigene No. Rn.23969; for Behavior of gene caused by administration of chemical substance, Gene No. 2546: Unigene No. Rn.24561; for Behavior of gene caused by administration of chemical substance, Gene No. 3776: Unigene No. Rn.43232; for Behavior of gene caused by administration of chemical substance, Gene No. 3929: Unigene No. Rn.4620; for Behavior of gene caused by administration of chemical substance, Gene No. 1119: Unigene No. Rn.9757; for Behavior of gene caused by administration of chemical substance, Gene No. 6742: Unigene No. Rn.9779; for Behavior of gene caused by administration of chemical substance, Gene No. 5634: Unigene No. Rn.9862; for Behavior of gene caused by administration of chemical substance, Gene No. 5726: gene group (D), Unigene No. Rn.9939
Outline: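 Oral gavage, once daily × 28 days; male F344 SPF rats, 5 wk, n=4/group; vehicle controls given equal solvent volume. Liver excised day 28, total RNA purified. Significance: ≥1.5× or ≤1/1.5 of vehicle, direction concordant with other carcinogens.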

## O=C(O)C(Cl)(Cl)Cl [TS051, Trichloroacetic acid]
rodent
  Carcinogenicity: C+
[1]
  Mutagenicity by Ames test: M−
liver; classification of the substance (Cr+/Cr−)
  Liver carcinogenicity: Cr−
[2]; mRNA vs vehicle control group
  Behavior of gene caused by administration of chemical substance, Gene No. 4846: −
  Behavior of gene caused by administration of chemical substance, Gene No. 2026: −
  Behavior of gene caused by administration of chemical substance, Gene No. 4218: −
  Behavior of gene caused by administration of chemical substance, Gene No. 6182: −
  Behavior of gene caused by administration of chemical substance, Gene No. 5600: −
  Behavior of gene caused by administration of chemical substance, Gene No. 1494: −
  Behavior of gene caused by administration of chemical substance, Gene No. 2045: −
  Behavior of gene caused by administration of chemical substance, Gene No. 2203: −
  Behavior of gene caused by administration of chemical substance, Gene No. 533: −
  Behavior of gene caused by administration of chemical substance, Gene No. 725: +
  Behavior of gene caused by administration of chemical substance, Gene No. 1163: −
  Behavior of gene caused by administration of chemical substance, Gene No. 4973: +
  Behavior of gene caused by administration of chemical substance, Gene No. 4095: +
  Behavior of gene caused by administration of chemical substance, Gene No. 1334: −
  Behavior of gene caused by administration of chemical substance, Gene No. 6620: −
  Behavior of gene caused by administration of chemical substance, Gene No. 6303: −
  Behavior of gene caused by administration of chemical substance, Gene No. 5878: −
  Behavior of gene caused by administration of chemical substance, Gene No. 1131: −
  Behavior of gene caused by administration of chemical substance, Gene No. 1562: −
  Behavior of gene caused by administration of chemical substance, Gene No. 1741: −
  Behavior of gene caused by administration of chemical substance, Gene No. 893: −
  Behavior of gene caused by administration of chemical substance, Gene No. 6026: −
  Behavior of gene caused by administration of chemical substance, Gene No. 154: −
  Behavior of gene caused by administration of chemical substance, Gene No. 1993: −
  Behavior of gene caused by administration of chemical substance, Gene No. 813: −
  Behavior of gene caused by administration of chemical substance, Gene No. 2494: −
  Behavior of gene caused by administration of chemical substance, Gene No. 2546: −
  Behavior of gene caused by administration of chemical substance, Gene No. 3776: −
  Behavior of gene caused by administration of chemical substance, Gene No. 3929: −
  Behavior of gene caused by administration of chemical substance, Gene No. 1119: −
  Behavior of gene caused by administration of chemical substance, Gene No. 6742: −
  Behavior of gene caused by administration of chemical substance, Gene No. 5634: −
  Behavior of gene caused by administration of chemical substance, Gene No. 5726: +

## NC(=O)c1ccccc1C(N)=O [TS073, Phthalamide]
rodent
  Carcinogenicity: C−
[1]
  Mutagenicity by Ames test: M−
liver; in vivo
  Liver carcinogenicity: Cr−
[2]
  Behavior of gene caused by administration of chemical substance, Gene No. 4846: −
  Behavior of gene caused by administration of chemical substance, Gene No. 2026: −
  Behavior of gene caused by administration of chemical substance, Gene No. 4218: −
  Behavior of gene caused by administration of chemical substance, Gene No. 6182: −
  Behavior of gene caused by administration of chemical substance, Gene No. 5600: −
  Behavior of gene caused by administration of chemical substance, Gene No. 1494: −
  Behavior of gene caused by administration of chemical substance, Gene No. 2045: +
  Behavior of gene caused by administration of chemical substance, Gene No. 2203: −
  Behavior of gene caused by administration of chemical substance, Gene No. 533: −
  Behavior of gene caused by administration of chemical substance, Gene No. 725: −
  Behavior of gene caused by administration of chemical substance, Gene No. 1163: −
  Behavior of gene caused by administration of chemical substance, Gene No. 4973: −
  Behavior of gene caused by administration of chemical substance, Gene No. 4095: −
  Behavior of gene caused by administration of chemical substance, Gene No. 1334: −
  Behavior of gene caused by administration of chemical substance, Gene No. 6620: −
  Behavior of gene caused by administration of chemical substance, Gene No. 6303: −
  Behavior of gene caused by administration of chemical substance, Gene No. 5878: −
  Behavior of gene caused by administration of chemical substance, Gene No. 1131: −
  Behavior of gene caused by administration of chemical substance, Gene No. 1562: −
  Behavior of gene caused by administration of chemical substance, Gene No. 1741: −
  Behavior of gene caused by administration of chemical substance, Gene No. 893: −
  Behavior of gene caused by administration of chemical substance, Gene No. 6026: −
  Behavior of gene caused by administration of chemical substance, Gene No. 154: −
  Behavior of gene caused by administration of chemical substance, Gene No. 1993: −
  Behavior of gene caused by administration of chemical substance, Gene No. 813: −
  Behavior of gene caused by administration of chemical substance, Gene No. 2494: −
  Behavior of gene caused by administration of chemical substance, Gene No. 2546: −
  Behavior of gene caused by administration of chemical substance, Gene No. 3776: −
  Behavior of gene caused by administration of chemical substance, Gene No. 3929: −
  Behavior of gene caused by administration of chemical substance, Gene No. 1119: −
  Behavior of gene caused by administration of chemical substance, Gene No. 6742: −
  Behavior of gene caused by administration of chemical substance, Gene No. 5634: −
  Behavior of gene caused by administration of chemical substance, Gene No. 5726: −
